Like-named read-outs stand apart in the source and are kept apart here. *1 amine or outer side, *2 acyl side, *3 side chain or, on linkers, in order; H or OH if unused. Where a SMILES comes first, the peptide text is derived from it. Side-chain parts run from the residue outwards. [ ]: non-standard residue; d: D form. The star is where a group is joined. αMePhe(2-F) = C[C@](N)(Cc1ccccc1F)C(=O)O; γGlu = O=C(O)[C@H](CCC(=O)[*:2])N[*:1]; αMeY = C[C@](N)(Cc1ccc(O)cc1)C(=O)O; αMeF = C[C@](N)(Cc1ccccc1)C(=O)O; αMeL = CC(C)C[C@](C)(N)C(=O)O; Lauroyl = CCCCCCCCCCCC(=O)*; Orn = NCCC[C@H](N)C(=O)O; AEEA = NCCOCCOCC(=O)O; Aib = CC(C)(N)C(=O)O
How the values were obtained:
[1] = target: T1, human GLP-1 receptor (hGLP-1R) (Homo sapiens, UniProt P43220); test: [125I]-GLP-1 binding, SPA with membranes of HEK293 cells expressing hGLP-1R; conditions: human GLP-1R; geometric mean (SEM, n); read-out: Binding Affinity Ki, nM (SEM, n) hGLP-1R
T1 construct: expressed in transfected cells; crude membranes
T1 sequence (P43220 24-463): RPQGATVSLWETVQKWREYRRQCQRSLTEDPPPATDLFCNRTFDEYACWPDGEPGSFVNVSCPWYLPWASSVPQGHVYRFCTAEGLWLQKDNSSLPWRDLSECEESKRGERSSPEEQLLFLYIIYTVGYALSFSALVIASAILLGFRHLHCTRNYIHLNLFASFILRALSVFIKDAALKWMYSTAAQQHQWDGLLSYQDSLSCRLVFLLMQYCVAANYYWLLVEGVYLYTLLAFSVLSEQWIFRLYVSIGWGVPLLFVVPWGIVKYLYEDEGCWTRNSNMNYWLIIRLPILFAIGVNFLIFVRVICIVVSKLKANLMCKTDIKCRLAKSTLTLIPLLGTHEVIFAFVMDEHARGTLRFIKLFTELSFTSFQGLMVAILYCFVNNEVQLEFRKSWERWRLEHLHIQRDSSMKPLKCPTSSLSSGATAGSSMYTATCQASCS

[2] = target: T2, human GIP receptor (hGIPR) (Homo sapiens, UniProt P48546); test: [125I]-GIP binding, SPA with membranes of CHO cells expressing hGIPR; conditions: human GIPR; geometric mean (SEM, n); read-out: Binding Affinity Ki, nM (SEM, n) hGIPR
T2 construct: expressed in transfected cells; crude membranes
T2 sequence (P48546 22-466): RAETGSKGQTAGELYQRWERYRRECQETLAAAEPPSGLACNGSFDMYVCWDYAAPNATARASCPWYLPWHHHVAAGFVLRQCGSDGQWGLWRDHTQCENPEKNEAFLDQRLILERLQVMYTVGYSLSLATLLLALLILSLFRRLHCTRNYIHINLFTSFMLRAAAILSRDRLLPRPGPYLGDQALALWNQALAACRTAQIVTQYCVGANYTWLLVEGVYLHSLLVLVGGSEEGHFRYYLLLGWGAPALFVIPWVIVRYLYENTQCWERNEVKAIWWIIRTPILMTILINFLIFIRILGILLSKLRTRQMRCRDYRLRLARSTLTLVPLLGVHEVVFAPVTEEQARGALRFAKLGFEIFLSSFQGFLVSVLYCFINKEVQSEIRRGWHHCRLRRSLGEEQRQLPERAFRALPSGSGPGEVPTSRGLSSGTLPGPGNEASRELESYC

[3] = target: T3, hGIPR (Homo sapiens, UniProt P48546); test: Functional cAMP formation (HTRF) in HEK-293 clonal cells expressing hGIPR, 0.1% bovine casein, without or with 1.0% human serum albumin; type: cell-based; conditions: 37° C.; for Emax: percent of maximal response to GIP(1-42)NH2, read-out: hGIPR Emax, % ± SEM; for EC50: cAMP, 0.1% bovine casein (no human serum albumin), geometric mean, read-out: hGIPR EC50, nM (SEM, n)
T3 construct: expressed in transfected cells
T3 sequence (P48546 22-466): T2 sequence (P48546 22-466)
In short: (§1)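 Cells were stimulated with peptide for 30 min at 37° C, then intracellular cAMP was measured by competitive HTRF (665/620 nm ratio) and converted to nM using a cAMP standard curve. Relative EC50 and Emax came from four-parameter logistic fits of percent maximal response against peptide concentration.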

[4] = target: T4, hGCGR (Homo sapiens, UniProt P47871); test: Functional cAMP formation (HTRF) in HEK-293 clonal cells expressing hGCGR, 0.1% bovine casein, without or with 1.0% human serum albumin; type: cell-based; conditions: 37° C., geometric mean, read-out: hGCGR EC50, nM (SEM, n)
T4 construct: expressed in transfected cells
T4 sequence (P47871 26-477): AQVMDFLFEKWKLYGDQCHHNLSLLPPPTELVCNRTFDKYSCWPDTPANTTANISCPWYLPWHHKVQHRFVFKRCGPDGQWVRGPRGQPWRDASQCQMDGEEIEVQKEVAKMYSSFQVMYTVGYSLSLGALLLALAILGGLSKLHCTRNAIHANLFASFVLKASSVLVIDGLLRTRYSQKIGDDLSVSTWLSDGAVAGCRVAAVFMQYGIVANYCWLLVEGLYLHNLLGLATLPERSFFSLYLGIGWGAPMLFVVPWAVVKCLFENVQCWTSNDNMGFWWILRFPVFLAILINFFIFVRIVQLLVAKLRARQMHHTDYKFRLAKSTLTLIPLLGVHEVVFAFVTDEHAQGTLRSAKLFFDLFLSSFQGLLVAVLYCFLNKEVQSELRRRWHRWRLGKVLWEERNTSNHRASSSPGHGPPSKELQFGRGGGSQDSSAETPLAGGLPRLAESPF
In short: as §1

[5] = target: hGLP-1R (Homo sapiens, UniProt P43220); test: Functional cAMP formation (HTRF) in HEK-293 clonal cells expressing hGLP-1R, 0.1% bovine casein, without or with 1.0% human serum albumin; type: cell-based; set-up: expressed in transfected cells; conditions: 37° C.; for EC50: cAMP, 0.1% bovine casein (no human serum albumin), geometric mean, read-out: hGLP-1R EC50, nM (SEM, n)
hGLP-1R, sequence (P43220 24-463): as the sequence (P43220 24-463) above
In short: as §1

[6] = HEK293, 0.1% bovine casein and 1.0% human serum albumin
[7] = 0.1% bovine casein and 1.0% human serum albumin
[8] = cAMP, 0.1% bovine casein (no human serum albumin)

Structure (SMILES)	Ki [1] [nM]	Ki [2] [nM]	Emax [3, 6] [%]	EC50 [3] [nM]	EC50 [4, 7] [nM]	EC50 [4, 8] [nM]	Emax ([5]; HEK293, 0.1% bovine casein and 1.0% human serum albumin, percent of maximal response to GLP-1(7-36)NH2, read-out: hGLP-1R Emax, % ± SEM) [%]	EC50 [5] [nM]	Emax ([3]; HEK293, cAMP, 0.1% bovine casein, arithmetic mean) [%]
CCCCCCCCCCCC(=O)N[C@@H](CCC(=O)NCCOCCOCC(=O)NCCOCCOCC(=O)NCCCC[C@H](NC(=O)[C@H](CCCN)NC(=O)[C@H](CC(=O)O)NC(=O)[C@H](CC(C)C)NC(=O)[C@](C)(CC(C)C)NC(=O)[C@@H](NC(=O)[C@H](CO)NC(=O)[C@H](CCCCNC(=O)COCCOCCNC(=O)COCCOCCNC(=O)CC[C@H](NC(=O)CCCCCCCCCCC)C(=O)O)NC(=O)[C@H](CC(=O)O)NC(=O)[C@H](CO)NC(=O)[C@@H](NC(=O)[C@](C)(Cc1ccccc1F)NC(=O)[C@@H](NC(=O)CNC(=O)[C@H](CCC(=O)O)NC(=O)C(C)(C)NC(=O)[C@@H](N)Cc1ccc(O)cc1)[C@@H](C)O)[C@@H](C)O)[C@@H](C)CC)C(=O)N[C@@H](C)C(=O)N[C@@H](CCC(N)=O)C(=O)NC(C)(C)C(=O)N[C@@H](CCC(=O)O)C(=O)N[C@@](C)(Cc1ccccc1)C(=O)N[C@H](C(=O)N[C@H](CCC(=O)O)C(=O)N[C@@](C)(Cc1ccc(O)cc1)C(=O)N[C@@H](CC(C)C)C(=O)N[C@H](C(=O)N[C@@H](CCC(=O)O)C(=O)NCC(=O)NCC(=O)N1CCC[C@H]1C(=O)N[C@@H](CO)C(=O)N[C@@H](CO)C(=O)NCC(=O)N[C@@H](C)C(=O)N1CCC[C@H]1C(=O)N1CCC[C@H]1C(=O)N1CCC[C@H]1C(=O)N[C@@H](CO)C(N)=O)[C@@H](C)CC)[C@@H](C)CC)C(=O)O [Example 293] (H-Y[Aib]EGT[αMePhe(2-F)]TSDK([AEEA-AEEA-γGlu-Lauroyl])SI[αMeL]LD[Orn]K([AEEA-AEEA-γGlu-Lauroyl])AQ[Aib]E[αMeF]I[dE][αMeY]LIEGGPSSGAPPPS-NH2)	0.211	0.022	96.6	0.00915	> 9950	> 9950	99.4	0.102	
CCCCCCCCCCCC(=O)N[C@@H](CCC(=O)NCCOCCOCC(=O)NCCOCCOCC(=O)NCCCC[C@H](NC(=O)[C@H](CCCN)NC(=O)[C@H](CC(=O)O)NC(=O)[C@H](CC(C)C)NC(=O)[C@](C)(CC(C)C)NC(=O)[C@@H](NC(=O)[C@H](CO)NC(=O)[C@H](Cc1ccncc1)NC(=O)[C@H](CC(=O)O)NC(=O)[C@H](CO)NC(=O)[C@@H](NC(=O)[C@](C)(Cc1ccccc1F)NC(=O)[C@@H](NC(=O)CNC(=O)[C@H](CCC(=O)O)NC(=O)C(C)(C)NC(=O)[C@@H](N)Cc1ccc(O)cc1)[C@@H](C)O)[C@@H](C)O)[C@@H](C)CC)C(=O)N[C@@H](C)C(=O)N[C@@H](CCC(N)=O)C(=O)NC(C)(C)C(=O)N[C@@H](CCCCNC(=O)COCCOCCNC(=O)COCCOCCNC(=O)CC[C@H](NC(=O)CCCCCCCCCCC)C(=O)O)C(=O)N[C@@H](Cc1ccccc1)C(=O)N[C@H](C(=O)N[C@H](CCC(=O)O)C(=O)N[C@@](C)(Cc1ccc(O)cc1)C(=O)N[C@@H](CC(C)C)C(=O)N[C@H](C(=O)N[C@@H](CCCN)C(=O)NCC(=O)NCC(=O)N1CCC[C@H]1C(=O)N[C@@H](CO)C(=O)N[C@@H](CO)C(=O)NCC(=O)N[C@@H](C)C(=O)N1CCC[C@H]1C(=O)N1CCC[C@H]1C(=O)N1CCC[C@H]1C(=O)N[C@@H](CO)C(N)=O)[C@@H](C)CC)[C@@H](C)CC)C(=O)O [Example 298]	0.119	0.0131	95	0.0107	> 9950	> 9950		0.19	97.4

Reference: patent US20230265151A1, “GIP/GLP1 CO-AGONIST COMPOUNDS” (priority 2020, published 2023)
